What follows are compounds tested on Plasmodium falciparum (assay: GSK_TCMDC: Inhibition of Plasmodium falciparum 3D7 in whole erythrocytes, using parasite LDH activity as an index of growth.). Settings: Plasmodium falciparum, 3D7.
Format: functional, organism-based

Structure (SMILES)	XC50
O=C(/C=C/c1cc([N+](=O)[O-])ccc1Cl)N1CCC(CCN2CCC(c3c[nH]c4ccccc34)CC2)CC1	742 nM
Cn1ccc2c3c(N)nc(N)nc3ccc21	902 nM
CC(C)N1CCC(N(Cc2ccc(-c3ccc(C(F)(F)F)cc3)cc2)C(=O)Cn2c(SCc3cccc(F)c3F)cc(=O)c3ccccc32)CC1	817 nM
COc1ccc2nc(C)cc(Nc3ccc(Oc4ccc5ccccc5c4)c(Cl)c3)c2c1	691 nM
COc1ccc(-c2cncc3ccc(C(=O)NCCCn4ccnc4)nc23)cc1	748 nM
O=C(NCCCCN1CC=C(c2ccc3c(c2OCc2ccccc2)CCCC3)CC1)c1ccc(-c2ccc(C(F)(F)F)cc2)cc1	296 nM
COc1ccc(CNC2CCN(C)CC2)cc1-c1ccc(S(=O)(=O)NC2CCC2)c(C)c1	993 nM
O=C(Nc1ccc(F)c(F)c1)c1ccc(CN2CCCN(Cc3cccc(F)c3)CC2)cc1	1120 nM
CN1CCN(CC(O)CNC(=O)Nc2ccc(Cl)cc2)CC1 (configuration not stated)	230 nM
CN(C)c1ccc(CN2CCCC(CNC(=O)c3ccc(-c4cccc(C(F)(F)F)c4)s3)C2)cc1 (configuration not stated)	1200 nM
COc1cc(Nc2nccc(-c3c(-c4cccc(NC(=O)c5c(F)cccc5F)c4)nn4ncccc34)n2)cc(OC)c1OC	32.6 nM
O=C(NCCNc1ccnc(Nc2ccc(F)cc2)n1)Nc1ccccc1F	762 nM
COc1ccc2ncc(C#N)c(CCN3CCC(NCc4cnc5c(c4)OCCO5)CC3)c2n1	595 nM
CSc1cccc(NC(=O)Nc2ccc(I)c(OCCN(C)C)c2)c1	691 nM
Cc1cc(N[C@@H](Cc2ccccc2)C(=O)NCCOc2ccccc2)nc(NCC2CCCCC2)n1	854 nM
Cc1cc(-c2cccc(CNC3CCN(C)CC3)c2)ccc1S(=O)(=O)NCCN1CCCC1	977 nM
Cc1ccc2sc(N3CCN(C(=O)c4ccc([N+](=O)[O-])o4)CC3)nc2c1C	945 nM
CC1CN(c2cnn(C/C=C/c3ccc(NC(=O)c4ccc([N+](=O)[O-])cc4)cc3)c(=O)c2Cl)CC(C)N1 (configuration not stated)	700 nM
COCCn1ccc2c3c(N)nc(N)nc3ccc21	214 nM
COc1ccc(CNC2CCN(C)CC2)cc1-c1ccc(OC)c(S(=O)(=O)NCc2ccccc2)c1	951 nM
O=C(COc1ccc(C(=O)c2ccccc2)cc1)Nc1nccs1	887 nM
CCOC(=O)C1CCN(CCOc2cc(NC(=O)/C=C/c3ccccc3Cl)ccc2Br)CC1	991 nM
COc1ccc2nccc([C@@H](O)CN3CCC(NC(=O)C(c4cc5ccccc5o4)N4CCN(C(c5ccccc5)c5ccccc5)CC4)CC3)c2c1 (some centres not stated)	149 nM
COc1ccccc1CCNc1ncc(F)c(N[C@@H](Cc2ccccc2)C(=O)NCCc2ccccc2)n1	965 nM
C=CCOC(=O)N1CCC(CNCc2cccc(-c3ccc(-c4nc5cc(C(F)(F)F)ccc5[nH]4)cc3)c2)C1 (configuration not stated)	146 nM

Structure (SMILES)	XC50
COc1ccc(-c2ccc(NC(=O)c3ccc(Cl)cc3)cc2)cc1CN1CCN(C)CC1	823 nM
O=C(NC1CCC(CCN2Cc3ccc(Br)cc3C2)CC1)c1cccc(-c2cccnc2)c1 (configuration not stated)	927 nM
CCOc1c(CNCCCNc2nc3ccccc3[nH]2)cc(Br)cc1OC	557 nM
CNC(=O)c1cc(S(=O)(=O)N2CCN(c3ccccn3)CC2)cs1	669 nM
CCCC(=O)c1c(O)c2ccccc2oc1=O	265 nM
O=C(NCCCCN1CCC(c2ccc3c(c2O)CCCC3)CC1)c1ccc(-c2ccc(Cl)cc2)cc1	754 nM
COc1ccc(-c2nc3ccc(C)nc3nc2-c2ccc(OC)cc2)cc1	1110 nM
O=[N+]([O-])c1ccc(C=NNc2nc3ccccc3[nH]2)cc1	283 nM
Clc1ccc(-c2ccc(CNCCCN3CCCC3)cc2)cc1	1060 nM
CCOc1c(Br)cc(Cl)cc1CNCCCNc1nc2ccccc2[nH]1	689 nM
Oc1cccc(Nc2nc(NCc3ccco3)c3ccccc3n2)c1	415 nM
CCCNS(=O)(=O)c1ccc(NC(=O)C(C)Oc2ccc([N+](=O)[O-])cc2)cc1 (configuration not stated)	719 nM
COc1ccc2nccc(NC(=O)N3CCC(NCc4cc5c(F)ccc(F)c5[nH]4)CC3)c2n1	221 nM
CC(=NNC(=N)N)c1ccc2c(c1)Cc1ccccc1-2	1410 nM
O=C(NCc1ccccc1)Nc1cccc(-c2cccc(-c3nc4cc(C(F)(F)F)ccc4[nH]3)c2)c1	264 nM
Cc1noc(C)c1-c1ccc2c(Nc3ccc(C(F)(F)F)cc3)c(C(N)=O)cnc2c1	319 nM
Cc1ccc(NC(=O)N2CCN(CCCCCNC(=O)/C=C/c3ccc(Cl)c(Cl)c3)CC2)cc1C	1100 nM
Cc1ccc2c(=NN=Cc3cccc(Cl)c3)cc(C)[nH]c2c1	949 nM
CN1CCN(Cc2cc3cc(NC(=O)/C=C/c4ccc(Cl)cc4)ccc3s2)CC1	767 nM
COc1cc2nc(C)nc(Nc3ccc4c(ccn4Cc4ccccc4)c3)c2cc1OC	556 nM
CCNc1cc(C)nc(Nc2ccccc2)n1	883 nM
COc1ccc(C(=O)N[C@@H](CC(C)C)C(=O)N[C@H](/C=N/NC(=O)c2ccccc2)CCc2ccccc2)cc1OCCN1CCOCC1	173 nM
CC(O)C1CCCCN1C(=O)c1cccc(-c2cccc(-c3nc4cc(C(F)(F)F)ccc4[nH]3)c2)c1 (configuration not stated)	280 nM
N=C(NCCCCCCCCNC(=N)Nc1ccc(Cl)cc1)Nc1ccc(Cl)cc1	590 nM
CCn1c(-c2nc(-c3ccc4c(c3)OCO4)cnc2N)nc2cnccc21	429 nM

Structure (SMILES)	XC50
O=C(NC1CC1)c1ccc(N2CCCC(COc3ccc4c(c3)CCCC4)C2)nc1 (configuration not stated)	1080 nM
CCOC(=O)/C(=N\OC(C)(C)C(=O)NCc1ccc(O)c(O)c1)c1csc(NC(c2ccccc2)(c2ccccc2)c2ccccc2)n1	170 nM
CC(C)CN1C(=O)c2ccccc2C(C(=O)Nc2cccc(C#N)c2)C1c1cccs1 (configuration not stated)	159 nM
COc1ccc(NC(=O)Nc2cccc(-c3ccncc3)c2)cc1N1CCN(C)CC1	552 nM
N#Cc1ccc2c(c1)CCN(CCC1CCC(NC(=O)/C=C/c3ccc4[nH]ccc4c3)CC1)CC2 (configuration not stated)	1060 nM
COc1ccc2cc(C(=O)Nc3ccc4c(c3)CCN(C3CCC3)CC4)ccc2c1	838 nM
Cc1[nH]c(C)c(-c2ccc(OCc3cccc(C(F)(F)F)c3)nc2)c(=O)c1Br	40.3 nM
O=C(c1cccc(-c2cccc(-c3nc4ccccc4[nH]3)c2)c1)N1CCCCC1CN1CCC(O)C1 (configuration not stated)	728 nM
CCOC(=O)C1=C(C)NC2=C(C(=O)CC(C)(C)C2)C1c1ccc(Br)cc1 (configuration not stated)	1160 nM
CCC(CCON1C(N)=NC(N)=NC1(C)C)c1ccc(Cl)c(Cl)c1 (configuration not stated)	3.2 nM
COc1cccc(O)c1CNCC(O)c1cccc(C(F)(F)F)c1 (configuration not stated)	945 nM
CCN(CC)CC(O)CNc1c2ccc([N+](=O)[O-])cc2nc2cc(OC)c(OC)cc12 (configuration not stated)	266 nM
O=C(/C=C/c1ccc(Cl)c(Cl)c1)NC1CCC(CN2CCC(c3nc4ccccc4n3CCCO)CC2)CC1 (configuration not stated)	577 nM
O=c1ccc2ccc(F)c3c2n1CC3CN1CCC(NCc2cccc(-c3ccccc3F)c2)CC1 (configuration not stated)	1100 nM
O=C(NCC1CCCCC1)c1cc(=O)c2ccccc2o1	320 nM
O=C(Nc1ccc(OC2CCN(Cc3ccco3)CC2)c(Cl)c1)c1ccc2ncccc2c1	949 nM
Cc1cc(-c2ccc(CNC3CCN(C)CC3)cc2)ccc1S(=O)(=O)NCc1ccccc1	851 nM
Cc1c(-c2cccc(C(C)(C)NC3CCN(Cc4ccccc4)CC3)c2)cnc(N)c1C	579 nM
CC1(C)NC(N)=NC(=N)N1OCCCOc1cc(Cl)cc(Cl)c1	3.2 nM
Cc1cc(NCCC(=O)NCCOc2ccccc2)nc(Nc2ccccc2)n1	1060 nM
CCOC(=O)c1ccc(N=C2SC(=Cc3cc(Br)ccc3O)C(=O)N2C)cc1	998 nM
O=C(NCC1CC1)C1Cc2c([nH]c3ccc(Br)cc23)C2(CCN(CCc3ccccc3)CC2)N1 (configuration not stated)	908 nM
Cc1c2c(nn1-c1ccccc1)C(c1ccccc1)N(c1ccccc1)C2=O (configuration not stated)	147 nM
COc1ccc(C2CCN(CCCCNC(=O)c3ccc(NC(=O)c4ccc(Cl)cc4)cc3)CC2)c(C)c1	747 nM
CNCCNCc1ccc(-c2cccc(-c3nc4cc(F)ccc4[nH]3)c2)cc1	1130 nM

Structure (SMILES)	XC50
CC1CN(Cc2ccc(-c3cccc(-c4nc5cc(F)ccc5[nH]4)c3)cc2)CC(C)O1 (configuration not stated)	917 nM
N=C(N)NC(=O)Nc1cc(F)c(Cl)c(Br)c1	993 nM
Cc1cc(N[C@@H](Cc2ccccc2)C(=O)NCCOc2ccccc2)nc(NCCc2ccccn2)n1	1520 nM
CCOC(=O)/C(=N\OC(C(=O)OC(C)(C)C)c1ccccc1)c1csc(NC(c2ccccc2)(c2ccccc2)c2ccccc2)n1 (configuration not stated)	1110 nM
COc1ccc(C=Cc2ccc(-c3c(C)[nH]c(C)c(Cl)c3=O)cc2)cc1OC	283 nM
CCCN(C(=O)c1ccccc1C)c1nnc(-c2cccc(C)c2)s1	896 nM
CC(C)(C)CCN1CCC(NC(=O)c2ccc(-c3cccc(C(F)(F)F)c3)s2)CC1	755 nM
CCc1cn2c3c(cc(C(=O)N[C@@H](Cc4cccc(Cl)c4)[C@H](O)CNC4CCCCC4)cc13)N(C)S(=O)(=O)CC2	57.1 nM
COC(=O)c1ccc2nc(-c3ccc(C(=O)NC4CCN(Cc5ccccc5)CC4)s3)[nH]c2c1	688 nM
O=C(/C=C/c1ccc(Cl)c(Cl)c1)N1CCC(CN2CCC(c3nc4ccccc4n3CCCO)CC2)CC1	839 nM
CCOC(=O)c1cccc(NC(=N)Nc2nc(C)cc(NCCc3ccccc3)n2)c1	684 nM
O=C(Nc1ccc(Cl)cc1)Nc1ccc(Cn2ncc(N3CCCNCC3)c(Cl)c2=O)cc1	783 nM
CC(C)C[C@H](NC(=O)c1cccc(F)c1)C(=O)N[C@H](/C=N/NC(=O)c1ccccc1)CCc1ccccc1	715 nM
O=C(Nc1cccc(C(F)(F)F)c1)N1CCOC(CCN2CCC(c3ccccc3)CC2)(c2ccc(Cl)c(Cl)c2)C1 (configuration not stated)	1110 nM
CC(CCc1ccccc1)NCC(O)c1ccc2c3c(cccc13)S(=O)(=O)N2C (configuration not stated)	627 nM
C=CCN1C(=O)c2[nH]nc(-c3cc(C)c(C)cc3O)c2C1c1cccc(Br)c1 (configuration not stated)	1160 nM
OC[C@H]1CCCN1CC#Cc1cc2c(Nc3ccc(OCc4cccc(F)c4)c(Cl)c3)ncnc2s1	1210 nM
CS(=O)(=O)c1cccc(-c2cnc(N)c3cc(-c4cccc(F)c4)ccc23)c1	860 nM
CCOc1ccccc1C(=O)N1CCc2cc3nccc(N4CCN5CCC[C@H]5C4)c3cc21	753 nM
COc1cc2nc(N3CCC(CNC(=O)c4cccc5cccnc45)CC3)nc(N)c2cc1OC	1700 nM
c1cncc(CCNCc2ccc(-c3cccc(-c4nc5ccccc5[nH]4)c3)cc2)c1	164 nM
Cc1ccc(-c2cc3nc4c(c(NCCCn5ccnc5)n3n2)CCC4)cc1	925 nM

Reference: ChEMBL document CHEMBL1157539, “Thousands of chemical starting points for antimalarial lead identification” (Nature, 2010)
